Assay results from article PMC9241695, “Selective Metal Chelation by a Thiosemicarbazone Derivative Interferes with Mitochondrial Respiration and Ribosome Biogenesis in Candida albicans” (Microbiology Spectrum, 2022).
In brackets after ≈: the same amount, converted by molar mass.

Legend:
C. albicans SC5314 [1] = assay: Respiratory activity by CTC staining; assay type: cell-based, Candida albicans; conditions: 6 h, 1 mM CTC; 19ak 0.125-1 μg/mL, TPEN 0.05-0.4 μg/mL
Protocol: h (for C. albicans, C. krusei, C. tropicalis, C. parapsilosis) or 48 h (for C. neoformans, A. fumigatus). The MIC was determined based on visible growth inhibition compared with the control. All experiments were performed in duplicate.
Cytotoxicity testing. The cell lines HK2 and 16HBE were used to evaluate the cytotoxicity of 19ak, 19k and 19t. Cells in DMEM containing 10% fetal bovine serum (Gibco) were seeded in 96-well tissue culture plates at a cell density of 1 × 10^4 cells/mL and incubated for 24 h to allow adhesion. The supernatant was then replaced with fresh DMEM containing various concentrations of 19ak, 19k and 19t. […]
The effects of the compounds on cell proliferation were detected by measuring the absorbance at 570 nm in a microplate reader (BioTek, VT, USA). […]
the fluorescent complex […] (CTF) is commonly used to indicate the intensity of microbial respiration. C. albicans SC5314 treated with 19ak was stained with 1 mM CTC for 30 min, followed by flow cytometry analysis of respiratory activity based on fluorescence intensity. Images of cells were obtained using a fluorescence microscope (IX71, Olympus, Tokyo, Japan). […] After an additional 2 h of incubation, OD450 in each well was detected with a microplate reader. […]
Mitochondrial complex activity was expressed as nmol/min/mg protein. […]

C. albicans SC5314 [2] = assay: Antifungal susceptibility testing, microbroth dilution MIC; assay type: cell-based; conditions: Candida albicans, SC5314, read-out: MIC against C. albicans SC5314 (Fig. S2 legend)
Source text: Compound library. The thiosemicarbazone derivatives Triapine and COTI-2 were purchased from Med Chem Express (MCE). The other 87 thiosemicarbazones used in this study were previously synthesized by our collaborators (1, 2). Their structures are shown in Table 1 and Table S1 to help the reader clearly understand the relationship between structure and activity.
Strains and culture conditions. Clinically derived C. albicans isolates, including G5, F5, and Gu5, were kindly provided by Professor Joachim Morschhäuser of the University of Würzburg. Other clinical C. albicans isolates were kindly donated by Professor Qingguo Qi of Shandong University and Qianfoshan Hospital of Shandong Province Other Candida strains were obtained from Jinan Central Hospital.
The zap1 mutant and its complemented strain were kindly provided by Professor Aaron P. Mitchell of Carnegie Mellon University (3). The C. neoformans strains used in this study was kindly donated by Professor Guojian Liao of Southwest University and A. fumigatus strain used in this study was provided by Professor Ling Lu of Nanjing Normal University. Before in vitro and in vivo experiments, all C. albicans strains were grown on YPD agar plates. After culturing at 30°C for 24 h, colonies of each strain were cultured in liquid YPD medium at 30°C with continuous shaking […]
Antifungal susceptibility testing. To determine in vitro antifungal activities, the microbroth dilution method was carried out in RPMI1640 medium according to the guidelines of the Clinical and Laboratory Standards Institute (4, 5). The initial concentration in RPMI1640 medium was 1 × 10^3 CFU/mL for the C. albicans and C. neoformans suspensions but 1 × 10^4 CFU/mL for A. fumigatus. The range of final drug concentrations was 0.0156–64 μg/mL. The plates were incubated at35°C for 24 […]
h (for C. albicans, C. krusei, C. tropicalis, C. parapsilosis) or 48 h (for C. neoformans, A. fumigatus). The MIC was determined based on visible growth inhibition compared with the control. All experiments were performed in duplicate. […]

C. albicans SC5314 [3] = assay: qPCR of genes associated with ribosome biogenesis; assay type: cell-based, Candida albicans; conditions: CPX 0.5 or 2 μg/mL 8 h; DFO 64 µg/mL 6 h; TPEN 0.05 or 0.2 μg/mL 6 h
Protocol: Determination of SOD activity. SOD activity was measured using the Superoxide Dismutase Activity Assay Kit (Njjcbio, Nanjing, China) following the manufacturer's instructions. An overnight culture of C. albicans SC5314 was adjusted to 1 × 10^7 cells/mL with RPMI1640 medium and treated with 19ak at a final concentration of 0, 0.125, 0.25, 0.5, or 1 μg/mL for 6 h. After collection by centrifugation, the cells were broken by glass beads in extraction buffer and centrifuged at 4°C. The absorbance of the supernatant of each sample was measured with a microplate reader at450 nm.
Determination of catalase (CAT) activity. CAT activity was measured by using a Catalase Assay Kit (Solarbio, Beijing, China) following the manufacturer's instructions. An overnight culture of C. albicans SC5314 was adjusted to 1 × 10^6 cells/mL with RPMI1640 medium and treated as described above for SOD activity.
The decomposition of H2O2 is directly accompanied by a decrease in absorbance at 240 nm, and the difference in absorbance per unit time (ΔA240) is a measure of […]
Quantitative real-time polymerase chain reaction (qPCR) analysis. C. albicans SC5314 cells (1 × 10^6 cells/mL) were incubated with or without 19ak (0.5,2 […]
Total RNA was extracted using the hot phenol method, and the RNA quality was analyzed using a spectrophotometer (Eppendorf, Hamburg, Germany). The RNA was converted to cDNA using a cDNA Reverse
Transcription kit (Accurate Biotechnology, Hunan, China). PCR detection based on SYBR Green was performed on an Eppendorf real-time PCR system (Eppendorf, […]
Drug resistance study. Drug resistance studies were carried out by repeatedly treating C. albicans with an antifungal agent followed by MIC determination using […]

SMILES: c1ccc(CN(CCN(Cc2ccccn2)Cc2ccccn2)Cc2ccccn2)nc1 [TPEN, N,N,N′,N′-tetrakis (2-pyridylmethyl) ethylenediamine, reference compound]
- Mitochondrial respiratory activity (CTC fluorescence intensity) (C. albicans SC5314 [1]): failed to observe reduced mitochondrial respiration
- MIC (C. albicans SC5314 [2]): 0.05 µg/mL (≈ 0.118 µM)
- Expression of genes associated with ribosome biogenesis (qPCR) (C. albicans SC5314 [3]): downregulated
